How the values were obtained:
[1] = test system: proximal convoluted tubule epithelium of the kidney; test: Histologic examination of kidney cortex tissue of Gentamicin-treated rats; assay type: in vivo, rat
Procedure: (§1) Gentamicin, a known kidney toxin, was used to treat rats at a range of doses known to produce varying degrees of bistopathologically evident kidney response. […] The rat groups included 10 male rats per treated group, and 20 male rats in the untreated (control) group. Blood samples from rats treated at 40 mg/kg/day after 8 days were taken for proteome analysis, and kidney cortex tissue samples from rats treated at 0.1, 1.0, 10, and 40 mg/kg/day after 8 and 22 days for each group were taken for proteome analysis. Kidney cortex tissue samples were also prepared for histologic examination according to standard tissue preparation protocols.
(§2) At 60 mg/kg/day there were changes in urine biochemistry parameters (raised NAG (N-acetyl-beta-D-glucosaminidase), GGT (gamma-glutamyl-transpeptidase) and urine volume, depressed specific gravity), consistent with kidney damage.

[2] = test system: rats; test: Urine biochemistry parameters in Gentamicin-treated rats; assay type: in vivo, rat; conditions: 60 mg/kg/day
Procedure: as §1, §2

## Gentamicin
[1]; 60 mg/kg
  histologic examination of kidney: single cell necrosis and loss of brush border of the proximal convoluted tubule epithelium of the kidney
[1]; seven days after the withdrawal of treatment
  histologic finding after withdrawal of treatment: evidence of cortical tubular regeneration
[2]
  urine GGT (gamma-glutamyl-transpeptidase): raised
  urine NAG (N-acetyl-beta-D-glucosaminidase): raised
  urine specific gravity: depressed
